Key:
Scirpus juncoides = assay: Paddy pot test, herbicidal effect on Scirpus juncoides; assay type: in vivo; parameters: scale not given here; conditions: Screening, 63 g/ha, examined after 3 weeks
Experimental: (§1) Plastic pots having an area of 100 cm^2 and a depth of 10 cm were filled with paddy soil which is puddled by adding water, and seeds of Echinochloa crus-galli and Scirpus juncoides were planted in the pots. After seeding, rice plants at the 2.5-leaf stage were transplanted and the pots were filled with water. The rice plants were grown in a greenhouse. […] The herbicidal effects and harmful effects on the rice plants were examined after 3 weeks. Herbicidal effects were examined according to the examination criteria described below and were represented by the herbicidal index. [table] […] [formula]

rice plants = assay: Paddy pot test, harmful effects on transplanted rice plants; assay type: in vivo; parameters: scale not given here; conditions: Screening, 63 g/ha, applied at Echinochloa crus-galli 1.5-leaf stage, examined after 3 weeks
Experimental: as §1

Echinochloa crus-galli = assay: Paddy pot test, herbicidal effect on Echinochloa crus-galli; assay type: in vivo; parameters: scale not given here; conditions: Screening, 63 g/ha, applied at 1.5-leaf stage, examined after 3 weeks
Experimental: as §1

Row | Compound | melting point | also measured
1 | CCn1ncc(C(=O)c2ccc(OC)c(N=S3(=O)CCCCC3)c2Cl)c1O [Example 4] | 137 to 139 °C | 
2 | COc1ccc(C(=O)C(C#N)C(=O)C2CC2)c(Cl)c1N=S1(=O)CCCCC1 (stereo not drawn) [Example 5] | 154 to 156 °C | 
3 | CCOc1ccc(C(=O)c2cnn(C)c2O)c(Cl)c1N=S1(=O)CCCCC1 [Example 12] | 88 to 90 °C | 
4 | CC(C)Oc1ccc(C(=O)c2cnn(C)c2O)c(Cl)c1N=S1(=O)CCCCC1 [Example 16] | 139 to 141 °C | 
5 | COC(=O)c1ccc(C(=O)c2cnn(C)c2O)c(Cl)c1N=S1(=O)CCCCC1 [Example 21] | 204 to 206 °C | 
6 | O=C1CCCC(O)=C1C(=O)c1ccc(-c2ccccc2)c(N=S2(=O)CCCCC2)c1Cl [Example 23] | 166 to 168 °C | 
7 | COC(=O)c1ccc(C(=O)c2cnn(C)c2O)c(Cl)c1N=S1(=O)CCOCC1 [Example 25] | 147 to 149 °C | 
8 | CCS(=O)(CC)=Nc1c(C(=O)OC)ccc(C(=O)c2cnn(C)c2O)c1Cl [Example 26] | 69 to 73 °C | 
9 | CCn1ncc(C(=O)c2ccc(C(=O)OC)c(N=S3(=O)CCCCC3)c2Cl)c1O [Example 30] | 201 to 203 °C | 
10 | Cn1ncc(C(=O)c2cccc(N=S3(=O)CCCCC3)c2)c1O [Example 35] | 112 to 113 °C | 
11 | Cn1ncc(C(=O)c2cccc(N=S3(=O)CCCCC3)c2Cl)c1O [Example 39] | 177 to 179 °C | 
12 | CSc1ccc(C(=O)C2=C(O)CCCC2=O)c(Cl)c1N=S1(=O)CCCCC1 [Example 41] | 178 to 180 °C | 
13 | CSc1ccc(C(=O)c2cnn(C)c2O)c(Cl)c1N=S1(=O)CCCCC1 [Example 42] | 157 to 159 °C | 
14 | Cn1ncc(C(=O)c2ccc(C#N)c(N=S3(=O)CCCCC3)c2Cl)c1O [Example 44] | 192 to 196 °C | 
15 | CCOC(=O)c1ccc(C(=O)c2cnn(C)c2O)c(Cl)c1N=S1(=O)CCCCC1 [Example 47] | 88 to 91 °C | 
16 | Cn1ncc(C(=O)c2ccc(OC3CCCC3)c(N=S3(=O)CCCCC3)c2Cl)c1O [Example 49] | 145 to 148 °C | 
17 | COCc1ccc(C(=O)c2cnn(C)c2O)c(Cl)c1N=S1(=O)CCCCC1 [Example 52] | 78 to 82 °C | 
18 | CON=Cc1ccc(C(=O)c2cnn(C)c2O)c(Cl)c1N=S1(=O)CCCCC1 [Example 55] | 98 to 105 °C | 
19 | COc1ccc(C(=O)c2c(C3CC3)nn(C)c2O)c(Cl)c1N=S1(=O)CCCCC1 [Example 56] | 145 to 147 °C | 
20 | O=C1CCCC(O)=C1C(=O)c1ccc(OCc2ccccc2)c(N=S2(=O)CCCCC2)c1Cl [Example 65] | 152 to 155 °C | 
21 | Cn1ncc(C(=O)c2ccc(OCc3ccccc3)c(N=S3(=O)CCCCC3)c2Cl)c1O [Example 66] | 95 to 97 °C | 
22 | COC(=O)c1ccc(C(=O)c2cnn(C)c2O)c(Br)c1N=S1(=O)CCOCC1 [Example 69] | 158 to 164 °C | 
23 | CCn1ncc(C(=O)c2ccc(C(=O)OC)c(N=S3(=O)CCOCC3)c2Br)c1O [Example 74] | 210 to 215 °C | 

Row | Compound | melting point | also measured
24 | COc1ccc(C(=O)c2cnn(C)c2O)c([N+](=O)[O-])c1N=S1(=O)CCCCC1 [Example 76] | 179 to 181 °C | 
25 | CCn1ncc(C(=O)c2ccc(OC)c(N=S3(=O)CCCCC3)c2[N+](=O)[O-])c1O [Example 77] | 190 to 192 °C | 
26 | CC(=O)OCc1ccc(C(=O)c2cnn(C)c2O)c(Cl)c1N=S1(=O)CCCCC1 [Example 83] | 64 to 68 °C | 
27 | COc1ccc(C(=O)c2cnn(C(C)(C)C)c2O)c(Cl)c1N=S1(=O)CCCCC1 [Example 88] | 200 to 202 °C | 
28 | COC(=O)/C=C/c1ccc(C(=O)c2cnn(C)c2O)c(Cl)c1N=S1(=O)CCCCC1 [Example 91] | 145 to 150 °C | 
29 | COc1ccc(C(=O)C2=C(O)CCCC2=O)c(OC)c1N=S1(=O)CCCCC1 [Example 92] | 129 to 131 °C | 
30 | COC(=O)c1ccc(C(=O)c2cnn(C)c2O)cc1N=S1(=O)CCCCC1 [Example 96] | 133 to 137 °C | 
31 | COc1ccc(C(=O)c2cnn(C)c2O)c(OC)c1N=S1(=O)CCCCC1 [Example 99] | 116 to 118 °C | 
32 | COC(=O)c1ccc(C(=O)c2c(C3CC3)nn(C)c2O)cc1N=S1(=O)CCCCC1 [Example 102] |  | Scripus juncoides (herbicidal index) (Scirpus juncoides): 6; Rice (harmful effects on the rice plants, index) (rice plants): 0; Echinochloa crus-galli (herbicidal index) (Echinochloa crus-galli): 6
33 | COC(=O)Oc1c(C(=O)c2ccc(OC)c(N=S3(=O)CCCCC3)c2Cl)cnn1C [Example 104] |  | Scripus juncoides (herbicidal index) (Scirpus juncoides): 9; Rice (harmful effects on the rice plants, index) (rice plants): 0; Echinochloa crus-galli (herbicidal index) (Echinochloa crus-galli): 10
34 | COC(=O)n1cc(C(=O)c2ccc(OC)c(N=S3(=O)CCCCC3)c2Cl)c(=O)n1C [Example 105] |  | Scripus juncoides (herbicidal index) (Scirpus juncoides): 8; Rice (harmful effects on the rice plants, index) (rice plants): 0; Echinochloa crus-galli (herbicidal index) (Echinochloa crus-galli): 10
35 | CCS(=O)(CC)=Nc1c(OC)ccc(C(=O)c2cnn(C)c2O)c1OC [Example 140] | 96 to 98 °C | 
36 | Cn1ncc(C(=O)c2ccc(OCC(F)(F)F)c(N=S3(=O)CCCCC3)c2Cl)c1O [Example 144] | 97 to 99 °C | 
37 | CCOc1c(C(=O)c2cnn(C)c2O)ccc(OC)c1N=S1(=O)CCCCC1 [Example 156] | 111 to 113 °C | 
38 | COC(=O)c1ccc(C(=O)C2=C(O)CCCC2=O)c(Cl)c1N=S(C)(C)=O [Example 160] | 135 to 137 °C | 
39 | CCOc1c(C(=O)c2cnn(CC)c2O)ccc(OC)c1N=S1(=O)CCCCC1 [Example 163] | 124 to 126 °C | 
40 | CCS(=O)(CC)=Nc1c(C)ccc(C(=O)c2cnn(C)c2O)c1C [Example 167] | 126 to 128 °C | 
41 | Cc1ccc(C(=O)c2cnn(C)c2O)c(C)c1N=S(C)(C)=O [Example 168] | 133 to 135 °C | 
42 | CSc1c(C(=O)c2cnn(C)c2O)ccc(C(F)(F)F)c1N=S1(=O)CCCCC1 [Example 169] | 155 to 157 °C | 
43 | Cn1ncc(C(=O)c2cccc(N=S3(=O)CCCCC3)c2F)c1O [Example 170] | 162 to 164 °C | 
44 | CCOc1ccc(C(=O)c2cnn(C)c2O)c(OC)c1N=S1(=O)CCCCC1 [Example 175] | 109 to 111 °C | 
45 | Cn1ncc(C(=O)c2ccc(Oc3ccccc3)c(N=S3(=O)CCCCC3)c2Cl)c1O [Example 180] | 134 to 137 °C | 
46 | N#Cc1ccc(C(=O)C2=C(O)CCCC2=O)c(Cl)c1N=S1(=O)CCCCC1 [Example 186] | 124 to 126 °C | 

Row | Compound | melting point | also measured
47 | CC(=O)Oc1ccc(C(=O)c2cnn(C)c2O)c(Cl)c1N=S1(=O)CCCCC1 [Example 189] | 135 to 139 °C | 
48 | COc1ccc(C(=O)c2cnn(C)c2O)c(Cl)c1N=S(C)(=O)c1cccs1 (stereo not drawn) [Example 192] | 90 to 92 °C | 
49 | COc1ccc(C(=O)C2=C(O)CCCC2=O)c(Cl)c1N=S(C)(=O)c1cccs1 (stereo not drawn) [Example 194] | 159 to 162 °C | 
50 | Cn1ncc(C(=O)c2ccc(OCCC3OCCO3)c(N=S3(=O)CCCCC3)c2Cl)c1O [Example 199] | 99 to 101 °C | 
51 | CSC(=O)Oc1c(C(=O)c2ccc(OCCC3OCCO3)c(N=S3(=O)CCCCC3)c2Cl)cnn1C [Example 200] | 159 to 161 °C | 
52 | C#CCOc1ccc(C(=O)c2cnn(C)c2O)c(Cl)c1N=S1(=O)CCCCC1 [Example 205] | 169 to 171 °C | 
53 | COCCOc1ccc(C(=O)c2cnn(C)c2O)c(Cl)c1N=S1(=O)CCCCC1 [Example 212] | 153 to 155 °C | 
54 | Cn1ncc(C(=O)c2ccc(-c3cccs3)c(N=S3(=O)CCCCC3)c2Cl)c1O [Example 214] | 158 to 164 °C | 
55 | Cn1ncc(C(=O)c2ccc(OCC3CC3)c(N=S3(=O)CCCCC3)c2Cl)c1O [Example 215] | 188 to 190 °C | 
56 | COCOc1ccc(C(=O)c2cnn(C)c2O)c(Cl)c1N=S1(=O)CCCCC1 [Example 221] | 93 to 95 °C | 
57 | COc1ccc(C(=O)c2cnn(C)c2O)c(Br)c1N=S1(=O)CCCCC1 [Example 223] | 144 to 146 °C | 
58 | Cn1ncc(C(=O)c2ccc(-c3ccco3)c(N=S3(=O)CCCCC3)c2Cl)c1O [Example 228] | 97 to 103 °C | 
59 | Cn1ncc(C(=O)c2ccc(O)c(N=S3(=O)CCCCC3)c2Cl)c1O [Example 233] | 165 to 167 °C | 
60 | COc1ccc(C(=O)c2cnn(C)c2OCC(F)(F)F)c(Cl)c1N=S1(=O)CCCCC1 [Example 235] | 131 to 132 °C | 
61 | CSCOc1ccc(C(=O)c2cnn(C)c2O)c(Cl)c1N=S1(=O)CCCCC1 [Example 238] | 112 to 114 °C | 
62 | Cn1ncc(C(=O)c2ccc(OCS(C)(=O)=O)c(N=S3(=O)CCCCC3)c2Cl)c1O [Example 241] | 104 to 106 °C | 
63 | Cn1ncc(C(=O)c2ccc(OCC(F)(F)C(F)(F)F)c(N=S3(=O)CCCCC3)c2Cl)c1O [Example 242] | 106 to 108 °C | 
64 | Cn1ncc(C(=O)c2ccc(OC[S+](C)[O-])c(N=S3(=O)CCCCC3)c2Cl)c1O (stereo not drawn) [Example 245] | 95 to 97 °C | 
65 | COc1ccc(C(=O)c2cnn(C)c2OC(=O)C2CC2)c(Cl)c1N=S1(=O)CCCCC1 [Example 246] | 129 to 131 °C | 
66 | COc1ccc(C(=O)c2cnn(C)c2O)c(Cl)c1N=S(C)(=O)c1ccccc1 (stereo not drawn) [Example 249] | 88 to 91 °C | 
67 | CCCOc1ccc(C(=O)c2cnn(C)c2O)c(Cl)c1N=S1(=O)CCCCC1 [Example 254] | 85 to 87 °C | 
68 | CC(=O)c1ccc(C(=O)c2cnn(C)c2O)c(Cl)c1N=S1(=O)CCCCC1 [Example 255] | 100 to 104 °C | 
69 | COCCOCOc1ccc(C(=O)c2cnn(C)c2O)c(Cl)c1N=S1(=O)CCCCC1 [Example 259] | 77 to 79 °C | 

— patent US20110144345A1, “SULFOXYIMINO-SUBSTITUTED BENZOYL DERIVATIVE AND HERBICIDE” (NIPPON SODA CO., LTD., priority 2008, published 2011)
